Experimental data taken from US8614327B2 (Vertex Pharmaceuticals Incorporated, priority 2004, dated 2013).

Biological target: T1, ΔF508-CFTR (Homo sapiens, UniProt P13569, DEL508-508)
T1 construct: expressed in transfected cells
Test: Membrane potential optical (FRET/VIPR) assay, identification of potentiator compounds
Type: cell-based
Conditions: Table 3, assay not given; for % Activity: relative efficacy
How it was run: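 Double-addition potentiator screen: compound delivered in gluconate-substituted Cl^--free medium, membrane potential followed via CC2-DMPE/DiSBAC2(3) FRET on VIPR. Cells were ΔF508-CFTR-expressing NIH3T3 mouse fibroblasts, held 2 h at 37° C. then 24 h at 27° C. before assay.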

T1 sequence (P13569 with tags, fused parts or gaps DEL508-508): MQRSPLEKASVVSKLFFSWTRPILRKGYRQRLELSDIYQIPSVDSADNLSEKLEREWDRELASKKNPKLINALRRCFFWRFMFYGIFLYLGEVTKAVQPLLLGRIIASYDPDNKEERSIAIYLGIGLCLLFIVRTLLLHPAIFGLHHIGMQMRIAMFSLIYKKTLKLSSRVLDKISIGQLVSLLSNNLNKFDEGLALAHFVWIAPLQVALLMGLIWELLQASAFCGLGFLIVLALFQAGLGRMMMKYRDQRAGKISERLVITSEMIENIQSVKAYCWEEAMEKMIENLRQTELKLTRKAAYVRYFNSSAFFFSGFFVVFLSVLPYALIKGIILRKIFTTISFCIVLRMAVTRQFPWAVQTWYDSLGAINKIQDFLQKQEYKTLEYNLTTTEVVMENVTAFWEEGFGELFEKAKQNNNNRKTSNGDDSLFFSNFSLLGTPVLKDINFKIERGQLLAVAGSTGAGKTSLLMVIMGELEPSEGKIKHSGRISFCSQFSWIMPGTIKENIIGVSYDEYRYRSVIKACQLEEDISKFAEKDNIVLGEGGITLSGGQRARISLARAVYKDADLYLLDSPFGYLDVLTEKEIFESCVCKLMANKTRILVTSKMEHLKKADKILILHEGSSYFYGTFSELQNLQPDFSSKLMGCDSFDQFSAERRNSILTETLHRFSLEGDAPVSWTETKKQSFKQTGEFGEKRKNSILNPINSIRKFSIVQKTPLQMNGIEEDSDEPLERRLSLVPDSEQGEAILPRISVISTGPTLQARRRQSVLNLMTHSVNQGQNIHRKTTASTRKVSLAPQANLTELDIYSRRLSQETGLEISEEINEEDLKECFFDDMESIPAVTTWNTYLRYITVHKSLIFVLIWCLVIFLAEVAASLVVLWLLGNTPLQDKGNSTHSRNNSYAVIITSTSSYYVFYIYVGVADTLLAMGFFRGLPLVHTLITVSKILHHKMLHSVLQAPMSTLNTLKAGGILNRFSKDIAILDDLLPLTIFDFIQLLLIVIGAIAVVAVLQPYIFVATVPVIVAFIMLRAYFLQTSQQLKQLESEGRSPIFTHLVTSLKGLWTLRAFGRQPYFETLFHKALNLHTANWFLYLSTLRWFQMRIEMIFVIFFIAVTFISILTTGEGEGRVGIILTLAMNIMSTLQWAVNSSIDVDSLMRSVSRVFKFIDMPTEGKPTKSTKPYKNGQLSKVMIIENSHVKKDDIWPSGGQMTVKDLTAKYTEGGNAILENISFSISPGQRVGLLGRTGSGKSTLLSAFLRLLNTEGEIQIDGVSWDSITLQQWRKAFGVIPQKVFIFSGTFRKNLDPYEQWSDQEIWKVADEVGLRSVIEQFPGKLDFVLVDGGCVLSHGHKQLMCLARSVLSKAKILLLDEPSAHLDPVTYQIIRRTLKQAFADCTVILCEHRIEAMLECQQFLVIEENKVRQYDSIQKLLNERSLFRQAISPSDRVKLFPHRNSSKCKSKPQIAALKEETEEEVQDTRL

EC50 [µM] | % Activity | Structure (SMILES)
10 to 25 | ++ (between 25% to 100%) | NCc1ccccc1-c1ccc(NC(=O)c2c[nH]c3ccccc3c2=O)cc1 [Compound 86, N-[4-[2-(aminomethyl)phenyl]phenyl]-4-oxo-1H-quinoline-3-carboxamide]
< 10 | ++ (between 25% to 100%) | CC(C)(C)c1ccc(NC(=O)c2c[nH]c3ccc(F)cc3c2=O)cc1O [Compound 490, 6-fluoro-N-(3-hydroxy-4-tert-butyl-phenyl)-4-oxo-1H-quinoline-3-carboxamide]
 | ++ (between 25% to 100%) | CCc1cccc(C(C)C)c1NC(=O)c1c[nH]c2ccccc2c1=O [Compound 314, N-(2-ethyl-6-isopropyl-phenyl)-4-oxo-1H-quinoline-3-carboxamide]
< 10 | ++ (between 25% to 100%) | CC(C)Cc1ccc(-c2ccccc2NC(=O)c2c[nH]c3ccccc3c2=O)cc1 [Compound 391, N-[2-(4-isobutylphenyl)phenyl]-4-oxo-1H-quinoline-3-carboxamide]
< 10 | ++ (between 25% to 100%) | CCOc1ccccc1-c1ccc(N)cc1NC(=O)c1c[nH]c2ccccc2c1=O [Compound 393, N-[5-amino-2-(2-ethoxyphenyl)-phenyl]-4-oxo-1H-quinoline-3-carboxamide]
< 10 | ++ (between 25% to 100%) | Cc1cccc2[nH]cc(C(=O)Nc3ccc(N4CC[C@H](F)C4)cc3C(F)(F)F)c(=O)c12 [Compound 626, (S)-N-(4-(3-fluoropyrrolidin-1-yl)-2-(trifluoromethyl)phenyl)-5-methyl-4-oxo-1,4-dihydroquinoline-3-carboxamide]
< 10 | +++ (>100%) | COC(=O)C1CCCCN1c1ccc(NC(=O)c2c[nH]c3ccccc3c2=O)c(C(F)(F)F)c1 (centres unmarked) [Compound 492, methyl 1-[4-[(4-oxo-1H-quinolin-3-yl)carbonylamino]-3-(trifluoromethyl)phenyl]piperidine-2-carboxylate]
< 10 | ++ (between 25% to 100%) | O=C(Nc1ccc(-c2ccccc2CNC(=O)C(F)(F)F)cc1)c1c[nH]c2ccccc2c1=O [Compound 224, 4-oxo-N-[4-[2-[(2,2,2-trifluoroacetyl)aminomethyl]phenyl]phenyl]-1H-quinoline-3-carboxamide]
25 to 60 | + (<25%) | O=C(Nc1ccc(C(F)(F)F)cn1)c1c[nH]c2ccccc2c1=O [Compound 74, 4-oxo-N-[5-(trifluoromethyl)-2-pyridyl]-1H-quinoline-3-carboxamide]
10 to 25 | ++ (between 25% to 100%) | O=C(Nc1ccc2c(c1)C(O)CCC2)c1c[nH]c2ccccc2c1=O (centres unmarked) [Compound 200, 1,4-dihydro-N-(1,2,3,4-tetrahydro-1-hydroxynaphthalen-7-yl)-4-oxoquinoline-3-carboxamide]
10 to 25 | ++ (between 25% to 100%) | Cc1ccc(NC(=O)c2c[nH]c3ccccc3c2=O)cc1N [Compound 167, N-(3-amino-4-methyl-phenyl)-4-oxo-1H-quinoline-3-carboxamide]
< 10 | ++ (between 25% to 100%) | CC(C)(C)c1cc(C(C)(C)C)c(NC(=O)c2c[nH]c3cc(OC(F)(F)F)ccc3c2=O)cc1O [Compound 694, N-(5-hydroxy-2,4-ditert-butyl-phenyl)-4-oxo-7-(trifluoromethoxy)-1H-quinoline-3-carboxamide]
< 10 | ++ (between 25% to 100%) | Cc1cccc2[nH]cc(C(=O)Nc3ccc(N4CC(F)(F)C[C@H]4C)cc3C(F)(F)F)c(=O)c12 [Compound 667, (R)-N-(4-(4,4-difluoro-2-methylpyrrolidin-1-yl)-2-(trifluoromethyl)phenyl)-5-methyl-4-oxo-1,4-dihydroquinoline-3-carboxamide]
< 10 | ++ (between 25% to 100%) | CC(C)(C)c1cc(C(C)(C)C)c(NC(=O)c2c[nH]c3c(Cl)cccc3c2=O)cc1O [Compound 663, 8-chloro-N-(5-hydroxy-2,4-ditert-butyl-phenyl)-4-oxo-1H-quinoline-3-carboxamide]
< 10 | ++ (between 25% to 100%) | COC(=O)[C@@H]1CCCCN1c1ccc(NC(=O)c2c[nH]c3ccccc3c2=O)c(C(F)(F)F)c1 [Compound 715, (S)-methyl 1-(4-(4-oxo-1,4-dihydroquinoline-3-carboxamido)-3-(trifluoromethyl)phenyl)piperidine-2-carboxylate]
< 10 | ++ (between 25% to 100%) | COc1ccc(-c2ccccc2NC(=O)c2c[nH]c3ccccc3c2=O)cc1OC [Compound 436, N-[2-(3,4-dimethoxyphenyl)phenyl]-4-oxo-1H-quinoline-3-carboxamide]

EC50 [µM] | % Activity | Structure (SMILES)
25 to 60 | + (<25%) | O=C(Nc1cccc2[nH]ccc12)c1c[nH]c2ccccc2c1=O [Compound 100, N-(1H-indol-4-yl)-4-oxo-1H-quinoline-3-carboxamide]
< 10 | ++ (between 25% to 100%) | CC(C)(C)c1cc(C(C)(C)C)c(NC(=O)c2c[nH]c3ccccc3c2=O)c(O)c1O [Compound 220, N-(2,3-dihydroxy-4,6-ditert-butyl-phenyl)-4-oxo-1H-quinoline-3-carboxamide]
< 10 | ++ (between 25% to 100%) | Cc1ccc2c(=O)c(C(=O)Nc3cc4[nH]ccc4cc3C(F)(F)F)c[nH]c2c1 [Compound 576, 7-methyl-4-oxo-N-[5-(trifluoromethyl)-1H-indol-6-yl]-1H-quinoline-3-carboxamide]
 | ++ (between 25% to 100%) | O=C(Nc1ccccc1-c1ccc(Cl)cc1Cl)c1c[nH]c2ccccc2c1=O [Compound 139, N-[2-(2,4-dichlorophenyl)phenyl]-4-oxo-1H-quinoline-3-carboxamide]
< 10 | ++ (between 25% to 100%) | CC(C)(C)OC(=O)Nc1ccc(C(C)(C)C)c(NC(=O)c2c[nH]c3ccccc3c2=O)c1 [Compound 353, [3-[(4-oxo-1H-quinolin-3-yl)carbonylamino]-4-tert-butyl-phenyl]aminoformic acid tert-butyl ester]
< 10 | ++ (between 25% to 100%) | Cc1cc(C2C3CC4CC(C3)CC2C4)c(O)cc1NC(=O)c1c[nH]c2ccccc2c1=O (centres unmarked) [Compound 208, N-[4-(2-adamantyl)-5-hydroxy-2-methyl-phenyl]-4-oxo-1H-quinoline-3-carboxamide]
< 10 | ++ (between 25% to 100%) | O=C(Nc1cc2[nH]ccc2cc1F)c1c[nH]c2ccccc2c1=O [Compound 77, N-(5-fluoro-1H-indol-6-yl)-4-oxo-1H-quinoline-3-carboxamide]
25 to 60 | + (<25%) | CC1=NN(c2cccc(NC(=O)c3c[nH]c4ccccc4c3=O)c2)C(=O)C1 [Compound 212, N-[3-(3-methyl-5-oxo-1,4-dihydropyrazol-1-yl)phenyl]-4-oxo-1H-quinoline-3-carboxamide]
< 10 | +++ (>100%) | COc1ccc(-c2ccccc2NC(=O)c2c[nH]c3ccccc3c2=O)cc1 [Compound 305, N-[2-(4-methoxyphenyl)phenyl]-4-oxo-1H-quinoline-3-carboxamide]
 | ++ (between 25% to 100%) | CC(C)c1ccc(NC(=O)c2c[nH]c3ccccc3c2=O)cc1 [Compound 425, N-(4-isopropylphenyl)-4-oxo-1H-quinoline-3-carboxamide]
< 10 | ++ (between 25% to 100%) | O=C(Nc1ccc(OC(F)F)cc1)c1c[nH]c2ccccc2c1=O [Compound 360, N-[4-(difluoromethoxy)phenyl]-4-oxo-1H-quinoline-3-carboxamide]
< 10 | ++ (between 25% to 100%) | O=C(Nc1ccc2cc(C(F)(F)F)[nH]c2c1)c1c[nH]c2ccccc2c1=O [Compound 537, 4-oxo-N-[2-(trifluoromethyl)-1H-indol-6-yl]-1H-quinoline-3-carboxamide]
< 10 | ++ (between 25% to 100%) | O=C(Nc1ccccc1-c1ccccc1OC(F)(F)F)c1c[nH]c2ccccc2c1=O [Compound 156, 4-oxo-N-[2-[2-(trifluoromethoxy)phenyl]phenyl]-1H-quinoline-3-carboxamide]
25 to 60 | + (<25%) | Cn1c(=O)oc2ccc(NC(=O)c3c[nH]c4ccccc4c3=O)cc21 [Compound 474, N-(3-methyl-2-oxo-3H-benzooxazol-5-yl)-4-oxo-1H-quinoline-3-carboxamide]
10 to 25 | ++ (between 25% to 100%) | CC(C)(C)OC(=O)N1CCc2ccc(NC(=O)c3c[nH]c4ccccc4c3=O)cc2C1 [Compound 107, 7-[(4-oxo-1H-quinolin-3-yl)carbonylamino]-1,2,3,4-tetrahydroisoquinoline-2-carboxylic acid tert-butyl ester]
< 10 | + (<25%) | CC(CO)(CO)c1ccc(NC(=O)c2c[nH]c3ccc(F)cc3c2=O)cc1 [Compound 627, 6-fluoro-N-[4-[2-hydroxy-1-(hydroxymethyl)-1-methyl-ethyl]phenyl]-4-oxo-1H-quinoline-3-carboxamide]

Structure (SMILES) | EC50 [µM] | % Activity
O=C(Nc1ccccc1)c1c[nH]c2ccccc2c1=O [Compound 215, 4-Oxo-N-phenyl-1H-quinoline-3-carboxamide] | < 10 | ++ (between 25% to 100%)
COC(=O)[C@@H]1C[C@@H](OC(C)(C)C)CN1c1ccc(NC(=O)c2c[nH]c3ccccc3c2=O)c(C(F)(F)F)c1 [Compound 550, (2S,4R)-methyl 4-tert-butoxy-1-(4-(4-oxo-1,4-dihydroquinoline-3-carboxamido)-3-(trifluoromethyl)phenyl)pyrrolidine-2-carboxylate] | < 10 | ++ (between 25% to 100%)
